From patent publication US11220491B2, “Photoprotective compositions containing Malassezia-derived compounds and/or chemical analogs thereof” (Versicolor Technologies, LLC, priority 2018, dated 2022)
Several values for one entry are separate records, joined by “and”; a condition that tells them apart may be missing. Equal entries are not always repeated. Where two headings read alike, the source gives them in different places.

How the values were obtained:
[1] = molecular target: T1, arylhydrocarbon receptor (AhR) (Homo sapiens, UniProt P35869); test: HepG2-AhR-Luciferase assay
T1 sequence (P35869 11-848): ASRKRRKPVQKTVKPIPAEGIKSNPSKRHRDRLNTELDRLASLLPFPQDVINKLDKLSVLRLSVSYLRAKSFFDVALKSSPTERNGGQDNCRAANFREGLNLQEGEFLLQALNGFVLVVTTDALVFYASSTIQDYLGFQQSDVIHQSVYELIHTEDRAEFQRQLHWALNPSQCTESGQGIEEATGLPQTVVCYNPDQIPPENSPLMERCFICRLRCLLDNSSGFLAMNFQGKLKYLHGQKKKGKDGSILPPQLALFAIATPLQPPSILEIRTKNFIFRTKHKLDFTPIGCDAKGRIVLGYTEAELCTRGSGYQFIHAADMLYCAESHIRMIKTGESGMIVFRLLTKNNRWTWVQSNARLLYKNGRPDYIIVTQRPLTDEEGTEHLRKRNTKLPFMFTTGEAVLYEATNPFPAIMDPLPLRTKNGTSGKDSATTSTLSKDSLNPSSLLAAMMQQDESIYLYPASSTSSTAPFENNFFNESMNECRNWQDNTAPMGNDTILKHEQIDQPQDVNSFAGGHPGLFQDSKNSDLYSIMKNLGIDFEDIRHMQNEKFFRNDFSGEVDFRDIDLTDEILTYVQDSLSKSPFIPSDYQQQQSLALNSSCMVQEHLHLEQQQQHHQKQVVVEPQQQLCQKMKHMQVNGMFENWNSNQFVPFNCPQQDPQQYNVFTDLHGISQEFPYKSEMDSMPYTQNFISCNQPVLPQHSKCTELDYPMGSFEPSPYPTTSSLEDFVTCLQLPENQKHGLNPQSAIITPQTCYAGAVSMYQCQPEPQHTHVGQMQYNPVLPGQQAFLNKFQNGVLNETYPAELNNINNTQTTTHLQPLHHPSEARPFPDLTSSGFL
Method: HepG2-AhR-Luc cells were purchased from Pharmaron, One-Glo Luciferase assay system was purchased from Promega. DMEM was purchased from Hyclone, and penicillin/streptomycin was purchased from Solabio.
Culture media for stably transfected HepG2 cells was prepared by supplementing DMEM with high glucose and L-glutamine, as well as 10% FBS.
HepG2-AhR-Luc cells were cultured in T-75 flasks at 37° C., 5% CO2, and 95% relative humidity. Cells were allowed to reach 80-90% confluence before detachment and splitting.
Cultivated cells were rinsed with 5 mL PBS. PBS was aspirated away, 1.5 mL trypsin was added to the flask, and cells were incubated at 37° C. for approximately 5 minutes or until the cells detached and floated. Trypsin was inactivated by adding excess serum-containing media.
The cell suspension was transferred to a conical tube and centrifuged at 120 g for 10 minutes to pellet the cells. Cells were resuspended in seeding media at a proper density. 40 μL of cells were transferred to a 384-well culture plate (5×10^3 cells/well). Plates were placed in the incubator at 37° C. for 24 hours.
Afterward, stock solutions of test compounds and omeprazole positive control were prepared. Compound solutions were transferred into the assay plate using Echo550. The plate was then placed back into the incubator for compound treatment.
Later, after 24 hours of treatment, the plate was removed from the incubator and allowed to cool at ambient temperature. 30 μL One-Glo reagent equal to that of the culture medium was added in each well. Cells were allowed to lyse for at least 3 minutes, and then measured in a luminometer.
Dose responses were graphed using the non-linear regression analysis in XLfit and EC50 values were also calculated.

[2] = molecular target: T1, arylhydrocarbon receptor (AhR); design: HepG2 cells stably transfected with an AhR-responsive luciferase reporter gene plasmid; host or cells: HepG2-AhR-Luc (HepG2 stably transfected with an AhR-responsive luciferase reporter plasmid); settings: cited from earlier work
MeWo cells [3] = test: Annexin V assay, additional evaluation (Example 8); assay type: cell-based; settings: 100, 10, 1 μM; 6, 24, 48, 72 hours
Method: (§1) To further investigate the impact of test compounds on apoptosis, multiple readouts, covering different stages of apoptosis, were carried out on both MeWo and WM115 cells. Both cell types were treated with test compounds at 3 doses (100 μM, 10 μM, and 1 μM). Staurosporine was used as a positive control. […] The test compounds evaluated were CV-8684. CV-8685, and CV-8688.
(§2) Cell seeding was performed as discussed above with the following exceptions: the final cell density was 4,000 cells/well for 6-hour and 24-hour detections, whereas 2,000 cells/well were used for 48-hour and 72-hour detections. For each time point. 384-well clear bottom plates (Corning 3712) and solid white bottom plates (Corning 3570) were prepared. The plates were incubated as discussed above.
(§3) For preparation of the compound source plate, each test compound was dissolved in DMSO to 10 mM stock. Two additional concentrations were generations by 10-fold dilution to 1 mM and 0.1 mM. Staurosporine was used as positive control and 1% DMSO was employed as vehicle (negative) control. The compound source plate was spun at room temperature at 1,000 RPM for 1 minute and agitated using a plate shaker for 2 minutes.
(§4) 400 nL of test compound was transferred from the compound source plate to 384-well culture plates using Echo550 liquid handler. After 6, 24, 48, and 72 hours, the plates were removed from the incubator for detections.
(§5) Culture media was removed and cells were washed twice with PBS. 20 μL of pre-mixed annexin V-FITC working solution was added to each well. The cells were incubated at room temperature for 20 minutes. Plates were read using Acumen eX3 to count the number of FITC-positive cells. The relative activity was calculated according to the following formula: Relative Activity (%)=100%×(Countsample/Countvehicle).

WM115 cells [4] = test: Annexin V assay, additional evaluation (Example 8); assay type: cell-based; settings: 100, 10, 1 μM; 6, 24, 48, 72 hours
Method: as §1, §2, §3, §4, §5

MeWo cells [5] = test: CellTiter-Glo cell viability assay (Example 9); assay type: cell-based; settings: 100, 10, 1 μM; 6, 24, 48, 72 hours
Method: (§6) CellTiter-Glo® 2.0 assay was purchased from Promega. Cell seeding, preparation of the compound source plate, and exposure of cells to test compounds were performed as described in Example 8.
(§7) CellTiter-Glo® reagents were thawed and equilibrated to room temperature before the experiment. 40 μL of CellTiter-Glo® reagent was then added to each well for detection (at 1:1 ratio to culture medium). The plates were then incubated at room temperature for 30 minutes and read using EnSpire (PerkinElmer) plate reader. The remaining activity was calculated according to the following formula: Remaining Activity (%)=100%×(Lumsample−Lumbkg)/(Lumvehicle−Lumbkg).

WM115 cells [6] = test: CellTiter-Glo cell viability assay (Example 9); assay type: cell-based; settings: 100, 10, 1 μM; 6, 24, 48, 72 hours
Method: as §6, §7

MeWo cells [7] = test: Lactate dehydrogenase (LDH) release assay (Example 10); assay type: cell-based; settings: 100, 10, 1 μM; 6, 24, 48, 72 hours
Method: (§8) The LDH assay quantitatively measures lactate dehydrogenase (“LDH”) released into the media from damaged cells as a biomarker for cytotoxicity and cytolysis.
(§9) CytoTox-ONE™ Homogenous Membrane Integrity Assay was purchased from Promega. Cell seeding, preparation of the compound source plate, and exposure of cells to test compounds were performed as described in Example 8.
(§10) Plates were then centrifuged at 1,000 RPM for 1 minute. 20 μL of cell culture medium was transferred into a new 384-well black solid plate. Then, 20 μL of CytoTOX-ONE™ was added into each well and incubated at room temperature for 10 minutes. Afterward, 10 μL of stop solution were added to each well, and the plates were agitated at 500 rpm for 1 minute. Plates were read using an excitation wavelength of 560 nm and an emission wavelength of 590 nm on EnSpire. The relative activity was calculated according to the following formula: Relative Activity (%)=100%×(Lumsample−Lumbkg)/(Lumvehicle−Lumbkg).

WM115 cells [8] = test: as above; assay type: cell-based; settings: 100, 10, 1 μM; 6, 24, 48, 72 hours
Method: as §8, §9, §10

MeWo cells [9] = test: Cell morphology after treatment (Example 6); assay type: cell-based; settings: 100 μM, 6 hours
WM115 cells [10] = test: Cell morphology after treatment (Example 6); assay type: cell-based; settings: 100 μM, 6 hours
[11] = cited from earlier work
Candida albicans = settings: cited from earlier work
staphylococci = settings: cited from earlier work
[12] = EC50 (uM), Table 2, 24 hours of treatment
[13] = EC50 (uM), Table 1, 24 hours of treatment

With Cc1ccc2c(c1)[nH]c1c(C)c3c(cc12)[nH]c1ccccc13 [AB17225] the EC50 [1, 12] was 3.93 µM.

COC(c1[nH]c2ccccc2c1C=O)c1c[nH]c2ccccc12 (stereo not drawn) [Compound H (AB12509)] showed an EC50 [1, 12] of 11.6 µM.

c1ccc2[nH]c(Cc3c[nH]c4ccccc34)cc2c1 [Malassezin Precursor] gave an EC50 [1, 12] of 37.3 µM.

In the case of Nc1c(C(=O)O)c2nc3c(C(=O)O)cccc3oc-2cc1=O [cinnabarinic acid], the AhR agonism [2] is given as “Agonists”.

For COC(=O)c1c(C(c2c[nH]c3ccccc23)C2CC2)[nH]c2ccccc12 (stereo not drawn) [AB17151], the EC50 [1, 12] was 13.7 µM.

In the case of O=C[C@@H]1Cc2c([nH]c3ccccc23)[C@@H](c2c[nH]c3ccccc23)CN1 [AB17011, Malassezia Indole A], the EC50 [1, 12] is reported as 35.8 µM.

For Nc1ccccc1C(=O)CC(N)C(=O)O (stereo not drawn) [kynurenine], the AhR agonism [2] is given as “Agonists”.

In the case of O=C(c1c[nH]c2ccccc12)c1nccc2c1[nH]c1ccccc12 [AB17014, Pityriacitrin], the EC50 [1, 12] is reported as 3.46 µM.

In the case of OCc1c(Cc2c[nH]c3ccccc23)[nH]c2ccccc12 [CV-8803], the EC50 [1, 13] is reported as 13.9 µM.

For O=Cc1c(Cc2c[nH]c3ccccc23)[nH]c2ccccc12 [CV-8684, Malassezin], the “apoptosis induction (annexin V binding)” value (MeWo cells [3]) was “induced apoptosis at the highest concentration tested after 6 hours of treatment”, the “apoptosis induction (annexin V binding)” value (WM115 cells [4]) was “induced apoptosis at the highest concentration tested after 6 hours of treatment” and the “inhibition of cell viability” value (MeWo cells [5]) was “dose-dependent inhibition of cell viability”. The “inhibition of cell viability” value (WM115 cells [6]) was “dose-dependent inhibition of cell viability”, the LDH release (MeWo cells [7]) was “did not induce significant release” and the LDH release (WM115 cells [8]) was “did not induce significant release”. For the same compound, the cell morphology (MeWo cells [9]) was “significantly affected”, the cell morphology (WM115 cells [10]) was “significantly affected” and the EC50 [1, 13] was 4.19 µM.

With CC(c1[nH]c2ccccc2c1C=O)c1c[nH]c2ccccc12 (stereo not drawn) [Compound II (CV-8688] the EC50 [1, 12] was 13.4 µM.

Work on Cc1ccc2cc3c(ccc4ccccc43)c3c2c1CC3 [Compound 3-MC, 3-methylcholanthrene, reference compound] yielded an EC50 [1] of 4.34 µM.

In the case of Pityriacitrin, the SPF ([11]; 1.25% cream) is listed as 1.4, the SPF ([11]; 2.5% cream) is listed as 1.5 and the SPF ([11]; 5% cream) is listed as 1.7. For the same compound, the UV-protective effect (Candida albicans) was “UV-protective effect”, the toxicity (Candida albicans) was “no toxicity” and the UV-protective effect (staphylococci) was “UV-protective effect”. The toxicity (staphylococci) was “no toxicity”.

In the case of c1ccc2c(c1)[nH]c1cc3c(cc12)[nH]c1ccccc13 [CV-8685, indolo[3,2-b] carbazole], the “apoptosis induction (annexin V binding)” value (MeWo cells [3]) is reported as 48 hours of treatment appeared to elicit apoptosis, the “apoptosis induction (annexin V binding)” value (WM115 cells [4]) is reported as “showed the induction effect with 24 hours of treatment” and the “inhibition of cell viability” value (WM115 cells [6]) is reported as “inhibitory effect on WM115 cell viability in a dose-dependent manner only after 24-hour treatment”. The LDH release (WM115 cells [8]) was “dose-dependent induction effect on LDH release”, the cell morphology (WM115 cells [10]) was “only affect WM115” and the EC50 [1, 13] was 6.6 µM. It also gave an EC50 [1, 12] of 15.2 µM.

For COc1ccc2[nH]c([S+]([O-])Cc3ncc(C)c(OC)c3C)nc2c1 (stereo not drawn) [Omeprazole, omeprazole, reference compound], the EC50 [1, 13] was 21.4 µM and the EC50 [1, 12] was 42.3 µM and 39.8 µM.

In the case of O=C(Cc1c[nH]c2ccccc12)Cc1c[nH]c2ccccc12 [AB12976], the EC50 [1, 12] is reported as 16.5 µM.

In the case of O=C1Nc2ccccc2/C1=C1/Nc2ccccc2C1=O [Indirubin], the AhR agonism [2] is listed as “known agonist”.

With CC(c1[nH]c2ccccc2c1CO)c1c[nH]c2ccccc12 (stereo not drawn) [CV-8804] the EC50 [1, 13] was 15.7 µM.

Work on Cc1ccc2c(c1)[nH]c1cc3c(cc12)[nH]c1ccccc13 [Compound IV (CV-8687)] yielded an EC50 [1, 12] of 33.6 µM.

O=Cc1c(C(=O)c2c[nH]c3ccccc23)[nH]c2ccccc12 [Compound A5 (CV-8819)] gave an EC50 [1, 12] of 4.11 µM.

For CC(c1[nH]c2ccccc2c1C(=O)O)c1c[nH]c2ccccc12 (stereo not drawn) [Compound B10], the EC50 [1, 12] was 4.29 µM.

In the case of Cc1ccc2c(Cc3[nH]c4ccccc4c3C=O)c[nH]c2c1 [Compound I (CV-8686)], the EC50 [1, 12] is reported as 5.45 µM.

With Clc1cc2c(cc1Cl)Oc1cc(Cl)c(Cl)cc1O2 [TCDD, 2,3,7,8-tetrachlorodibenzodioxin, reference compound] the EC50 [1, 12] was 0.0018 µM and 0.0031 µM.

In the case of O=Cc1c2[nH]c3ccccc3c2cc2[nH]c3ccccc3c12 [6-formylindolo[3,2-b] carbazole (FICZ), 6-formylindolo[3,2-b] carbazole], the AhR agonism [2] is listed as “Agonists”.
